Source: the supplement of paper PMC10307832

compound: CC(C)(C)c1nc(-c2cccc(NS(=O)(=O)c3c(F)cccc3F)c2F)c(-c2ccnc(N)n2)s1 [Dabrafenib] + NC(=O)Nc1cc(-c2cccc(F)c2)sc1C(=O)N[C@H]1CCCNC1 [AZD7762] (partner 0.2 µM); assay: relative viability (nuclei count vs DMSO), 5 days (fraction); higher = more cells survive; details: first compound 0.003 µM
How it was run: (§1)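 Relative viability equals treated-well nuclei counts divided by vehicle-well nuclei counts. Counts came from 4× images of lung cancer cell lines grown in 1536-well plates for 5 days after pin-tool dosing on the day after seeding. Dosing used one drug alone or a fixed anchor-drug dose plus five library-drug doses (not always all listed) in √10 steps, and values are medians of duplicate plates.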

| Cell Line | relative viability |
| --- | --- |
| ABC-1 | 0.345 |
| CAL-12T | 0.59 |
| NCI-H1944 | 0.219 |
| NCI-H2085 | 0.724 |
| NCI-H2170 | 0.282 |
| LCLC-103H | 0.703 |
| HCC-827 | 0.129 |
| NCI-H2126 | 0.872 |
| HCC-44 | 0.966 |
| ChaGo-K-1 | 0.303 |
| NCI-H1648 | 0.638 |
| NCI-H2342 | 0.364 |

same assay, conditions: first compound 0.009487 µM

| Cell Line | relative viability |
| --- | --- |
| ABC-1 | 0.638 |
| CAL-12T | 0.626 |
| NCI-H1944 | 0.537 |
| NCI-H2085 | 1.11 |
| NCI-H441 | 1.22 |
| NCI-H522 | 0.936 |
| EMC-BAC-2 | 1.13 |
| NCI-H2170 | 0.841 |
| NCI-H650 | 1.08 |
| LCLC-103H | 0.834 |
| NCI-H596 | 1.2 |
| HCC-827 | 0.234 |
| NCI-H2126 | 1.11 |
| HCC-44 | 1.02 |
| ChaGo-K-1 | 0.839 |
| NCI-H1648 | 0.797 |
| NCI-H1792 | 0.723 |
| NCI-H2342 | 0.486 |

same assay, conditions: first compound 0.03 µM

| Cell Line | relative viability |
| --- | --- |
| ABC-1 | 0.823 |
| CAL-12T | 0.661 |
| NCI-H1944 | 0.397 |
| NCI-H2085 | 1.01 |
| NCI-H441 | 1.02 |
| NCI-H522 | 0.717 |
| EMC-BAC-2 | 0.967 |
| NCI-H2170 | 0.616 |
| NCI-H650 | 0.82 |
| LCLC-103H | 0.701 |
| NCI-H596 | 0.958 |
| HCC-827 | 0.216 |
| NCI-H2126 | 1.02 |
| HCC-44 | 1.12 |
| ChaGo-K-1 | 0.855 |
| NCI-H1792 | 0.434 |
| NCI-H2342 | 0.417 |

same assay, conditions: first compound 0.09487 µM

| Cell Line | relative viability |
| --- | --- |
| ABC-1 | 0.789 |
| CAL-12T | 0.594 |
| NCI-H1944 | 0.457 |
| NCI-H2085 | 0.874 |
| NCI-H441 | 1.03 |
| NCI-H522 | 0.88 |
| EMC-BAC-2 | 0.728 |
| NCI-H2170 | 0.64 |
| NCI-H650 | 0.663 |
| LCLC-103H | 0.794 |
| NCI-H596 | 1.14 |
| NCI-H2126 | 0.94 |
| HCC-44 | 1.06 |
| ChaGo-K-1 | 0.698 |
| NCI-H1648 | 0.611 |
| NCI-H1792 | 0.34 |
| NCI-H2342 | 0.481 |

same assay, conditions: first compound 0.3 µM

| Cell Line | relative viability |
| --- | --- |
| ABC-1 | 0.597 |
| CAL-12T | 0.703 |
| NCI-H1944 | 0.555 |
| NCI-H2085 | 1.01 |
| NCI-H441 | 1.34 |
| NCI-H522 | 0.841 |
| EMC-BAC-2 | 0.782 |
| NCI-H2170 | 0.745 |
| NCI-H1703 | 0.136 |
| NCI-H650 | 0.724 |
| LCLC-103H | 0.761 |
| NCI-H596 | 1.16 |
| HCC-827 | 0.276 |
| NCI-H2126 | 1.01 |
| HCC-44 | 1 |
| ChaGo-K-1 | 0.879 |
| NCI-H1648 | 0.802 |
| NCI-H1792 | 0.485 |
| NCI-H2342 | 0.55 |

compound: CC(C)(C)c1nc(-c2cccc(NS(=O)(=O)c3c(F)cccc3F)c2F)c(-c2ccnc(N)n2)s1 [Dabrafenib] + Cc1cc(Nc2cc(N3CCN(C)CC3)nc(Sc3ccc(NC(=O)C4CC4)cc3)n2)n[nH]1 [Tozasertib] (partner 0.1 µM); assay: as above; details: first compound 0.003 µM
How it was run: as §1

| Cell Line | relative viability |
| --- | --- |
| ABC-1 | 0.215 |
| CAL-12T | 0.377 |
| NCI-H1944 | 0.252 |
| NCI-H2085 | 0.76 |
| EMC-BAC-2 | 0.286 |
| NCI-H2170 | 0.805 |
| UMC-11 | 0.189 |
| LCLC-103H | 0.401 |
| HCC-827 | 0.426 |
| COR-L 105 | 0.332 |
| NCI-H2126 | 0.809 |
| HCC-44 | 0.959 |
| NCI-H1650 | 0.524 |
| ChaGo-K-1 | 0.219 |
| NCI-H1648 | 0.641 |
| COR-L23 | 0.174 |
| SW 1573 | 0.284 |
| NCI-H2342 | 0.44 |
| NCI-H661 | 0.344 |
| NCI-H2009 | 0.703 |
| NCI-H520 | 0.431 |
| NCI-H2023 | 0.376 |
| SK-MES-1 | 0.863 |

same assay, conditions: first compound 0.009487 µM

| Cell Line | relative viability |
| --- | --- |
| ABC-1 | 0.244 |
| CAL-12T | 0.424 |
| NCI-H1944 | 0.262 |
| NCI-H2085 | 0.908 |
| NCI-H2228 | 0.246 |
| NCI-H441 | 0.555 |
| NCI-H522 | 0.471 |
| EMC-BAC-2 | 0.284 |
| NCI-H2170 | 0.811 |
| UMC-11 | 0.202 |
| NCI-H650 | 0.667 |
| LCLC-103H | 0.514 |
| NCI-H596 | 0.781 |
| HCC-827 | 0.457 |
| COR-L 105 | 0.415 |
| NCI-H2126 | 0.865 |
| HCC-44 | 0.974 |
| NCI-H1650 | 0.563 |
| ChaGo-K-1 | 0.223 |
| NCI-H1648 | 0.463 |
| COR-L23 | 0.221 |
| SK-LU-1 | 0.365 |
